Experimental data from patent publication US4032625A, “Bone-seeking technetium-99m complex” (priority 1975, dated 1977).
Where two headings read alike, the source gives them in different places.

Settings: 2 Hrs

With “99m technetium-tin-1-amino-ethane-1,1-diphosphonate complex [^99m Tc-Sn-AEDP]” the “Ratio of 99mTc complex/85Sr: Ave Bone” value (0.01 mg/kg) was 0.735, the “Ratio of 99mTc complex/85Sr: Blood” value (0.01 mg/kg) was 0.406 and the “Ratio of 99mTc complex/85Sr: Femur” value (0.01 mg/kg) was 0.720. The “Ratio of 99mTc complex/85Sr: Kidneys” value (0.01 mg/kg) was 4.99, the “Ratio of 99mTc complex/85Sr: Liver” value (0.01 mg/kg) was 3.00 and the “Ratio of 99mTc complex/85Sr: Marrow” value (0.01 mg/kg) was 1.27. For the same substance, the “Ratio of 99mTc complex/85Sr: Muscle” value (0.01 mg/kg) was 0.338, the “Ratio of 99mTc complex/85Sr: Pelvis” value (0.01 mg/kg) was 0.794 and the “Ratio of 99mTc complex/85Sr: Spine” value (0.01 mg/kg) was 0.689. The “Ratio of 99mTc complex/85Sr: Tibia” value (0.01 mg/kg) was 0.710, the “Tc/Sr (last line of distribution table)” value (0.01 mg/kg) was 0.736 and the “% Dose in Whole Organ: Blood” value (0.01 mg/kg AEDP) was 1.18 % Dose. For the same substance, the “% Dose in Whole Organ: Kidneys” value (0.01 mg/kg AEDP) was 1.59 % Dose, the “% Dose in Whole Organ: Liver” value (0.01 mg/kg AEDP) was 1.69 % Dose and the “% Dose in Whole Organ: Marrow” value (0.01 mg/kg AEDP) was 0.657 % Dose. For the same substance, the “% Dose in Whole Organ: Muscle” value (0.01 mg/kg AEDP) was 0.988 % Dose, the “% Dose in Whole Organ: W. Femur” value (0.01 mg/kg AEDP) was 2.34 % Dose and the “% Dose in Whole Organ: W. Tibia” value (0.01 mg/kg AEDP) was 1.96 % Dose. For the same substance, the “% Dose/1% Body weight: Blood” value (0.01 mg/kg AEDP) was 0.168 % Dose/1% Body weight, the “% Dose/1% Body weight: Bone Ave” value (0.01 mg/kg AEDP) was 7.60 % Dose/1% Body weight and the “% Dose/1% Body weight: Femur” value (0.01 mg/kg AEDP) was 7.54 % Dose/1% Body weight. The “% Dose/1% Body weight: Kidneys” value (0.01 mg/kg AEDP) was 2.72 % Dose/1% Body weight, the “% Dose/1% Body weight: Liver” value (0.01 mg/kg AEDP) was 0.617 % Dose/1% Body weight and the “% Dose/1% Body weight: Marrow” value (0.01 mg/kg AEDP) was 0.300 % Dose/1% Body weight. For the same substance, the “% Dose/1% Body weight: Muscle” value (0.01 mg/kg AEDP) was 0.037 % Dose/1% Body weight, the “% Dose/1% Body weight: Pelvis” value (0.01 mg/kg AEDP) was 8.53 % Dose/1% Body weight and the “% Dose/1% Body weight: Spine” value (0.01 mg/kg AEDP) was 6.20 % Dose/1% Body weight. The “% Dose/1% Body weight: Tibia” value (0.01 mg/kg AEDP) was 8.13 % Dose/1% Body weight, the “% Dose: Urine” value (0.01 mg/kg AEDP) was 48.39 % Dose and the “Ratio of 99mTc complex/85Sr: Ave Bone” value (0.05 mg/kg) was 0.683. The “Ratio of 99mTc complex/85Sr: Blood” value (0.05 mg/kg) was 0.409, the “Ratio of 99mTc complex/85Sr: Femur” value (0.05 mg/kg) was 0.687 and the “Ratio of 99mTc complex/85Sr: Kidneys” value (0.05 mg/kg) was 3.30. The “Ratio of 99mTc complex/85Sr: Liver” value (0.05 mg/kg) was 1.32, the “Ratio of 99mTc complex/85Sr: Marrow” value (0.05 mg/kg) was 1.18 and the “Ratio of 99mTc complex/85Sr: Muscle” value (0.05 mg/kg) was 0.236. For the same substance, the “Ratio of 99mTc complex/85Sr: Pelvis” value (0.05 mg/kg) was 0.684, the “Ratio of 99mTc complex/85Sr: Spine” value (0.05 mg/kg) was 0.675 and the “Ratio of 99mTc complex/85Sr: Tibia” value (0.05 mg/kg) was 0.681. The “Tc/Sr (last line of distribution table)” value (0.05 mg/kg) was 0.680, the “% Dose in Whole Organ: Blood” value (0.05 mg/kg AEDP) was 1.01 % Dose and the “% Dose in Whole Organ: Kidneys” value (0.05 mg/kg AEDP) was 1.13 % Dose. The “% Dose in Whole Organ: Liver” value (0.05 mg/kg AEDP) was 0.806 % Dose, the “% Dose in Whole Organ: Marrow” value (0.05 mg/kg AEDP) was 0.549 % Dose and the “% Dose in Whole Organ: Muscle” value (0.05 mg/kg AEDP) was 1.20 % Dose. For the same substance, the “% Dose in Whole Organ: W. Femur” value (0.05 mg/kg AEDP) was 2.41 % Dose, the “% Dose in Whole Organ: W. Tibia” value (0.05 mg/kg AEDP) was 2.14 % Dose and the “% Dose/1% Body weight: Blood” value (0.05 mg/kg AEDP) was 0.144 % Dose/1% Body weight. For the same substance, the “% Dose/1% Body weight: Bone Ave” value (0.05 mg/kg AEDP) was 8.39 % Dose/1% Body weight, the “% Dose/1% Body weight: Femur” value (0.05 mg/kg AEDP) was 8.63 % Dose/1% Body weight and the “% Dose/1% Body weight: Kidneys” value (0.05 mg/kg AEDP) was 1.83 % Dose/1% Body weight. The “% Dose/1% Body weight: Liver” value (0.05 mg/kg AEDP) was 0.176 % Dose/1% Body weight, the “% Dose/1% Body weight: Marrow” value (0.05 mg/kg AEDP) was 0.250 % Dose/1% Body weight and the “% Dose/1% Body weight: Muscle” value (0.05 mg/kg AEDP) was 0.028 % Dose/1% Body weight. The “% Dose/1% Body weight: Pelvis” value (0.05 mg/kg AEDP) was 7.82 % Dose/1% Body weight, the “% Dose/1% Body weight: Spine” value (0.05 mg/kg AEDP) was 7.80 % Dose/1% Body weight and the “% Dose/1% Body weight: Tibia” value (0.05 mg/kg AEDP) was 9.30 % Dose/1% Body weight. For the same substance, the “% Dose: Urine” value (0.05 mg/kg AEDP) was 44.21 % Dose, the “Ratio of 99mTc complex/85Sr: Ave Bone” value (0.1 mg/kg) was 0.716 and the “Ratio of 99mTc complex/85Sr: Blood” value (0.1 mg/kg) was 0.409. The “Ratio of 99mTc complex/85Sr: Femur” value (0.1 mg/kg) was 0.714, the “Ratio of 99mTc complex/85Sr: Kidneys” value (0.1 mg/kg) was 2.94 and the “Ratio of 99mTc complex/85Sr: Liver” value (0.1 mg/kg) was 0.490. For the same substance, the “Ratio of 99mTc complex/85Sr: Marrow” value (0.1 mg/kg) was 0.621, the “Ratio of 99mTc complex/85Sr: Muscle” value (0.1 mg/kg) was 0.205 and the “Ratio of 99mTc complex/85Sr: Pelvis” value (0.1 mg/kg) was 0.725. For the same substance, the “Ratio of 99mTc complex/85Sr: Spine” value (0.1 mg/kg) was 0.705, the “Ratio of 99mTc complex/85Sr: Tibia” value (0.1 mg/kg) was 0.721 and the “Tc/Sr (last line of distribution table)” value (0.1 mg/kg) was 0.717. For the same substance, the “% Dose in Whole Organ: Blood” value (0.1 mg/kg AEDP) was 0.96 % Dose, the “% Dose in Whole Organ: Kidneys” value (0.1 mg/kg AEDP) was 0.913 % Dose and the “% Dose in Whole Organ: Liver” value (0.1 mg/kg AEDP) was 0.309 % Dose. For the same substance, the “% Dose in Whole Organ: Marrow” value (0.1 mg/kg AEDP) was 0.211 % Dose, the “% Dose in Whole Organ: Muscle” value (0.1 mg/kg AEDP) was 1.46 % Dose and the “% Dose in Whole Organ: W. Femur” value (0.1 mg/kg AEDP) was 2.38 % Dose. The “% Dose in Whole Organ: W. Tibia” value (0.1 mg/kg AEDP) was 2.18 % Dose, the “% Dose/1% Body weight: Blood” value (0.1 mg/kg AEDP) was 0.137 % Dose/1% Body weight and the “% Dose/1% Body weight: Bone Ave” value (0.1 mg/kg AEDP) was 7.51 % Dose/1% Body weight. The “% Dose/1% Body weight: Femur” value (0.1 mg/kg AEDP) was 7.93 % Dose/1% Body weight, the “% Dose/1% Body weight: Kidneys” value (0.1 mg/kg AEDP) was 1.28 % Dose/1% Body weight and the “% Dose/1% Body weight: Liver” value (0.1 mg/kg AEDP) was 0.083 % Dose/1% Body weight. For the same substance, the “% Dose/1% Body weight: Marrow” value (0.1 mg/kg AEDP) was 0.096 % Dose/1% Body weight, the “% Dose/1% Body weight: Muscle” value (0.1 mg/kg AEDP) was 0.034 % Dose/1% Body weight and the “% Dose/1% Body weight: Pelvis” value (0.1 mg/kg AEDP) was 6.24 % Dose/1% Body weight. The “% Dose/1% Body weight: Spine” value (0.1 mg/kg AEDP) was 7.36 % Dose/1% Body weight, the “% Dose/1% Body weight: Tibia” value (0.1 mg/kg AEDP) was 8.50 % Dose/1% Body weight and the “% Dose: Urine” value (0.1 mg/kg AEDP) was 38.8 % Dose. For the same substance, the “Ratio of 99mTc complex/85Sr: Ave Bone” value (0.5 mg/kg) was 0.644, the “Ratio of 99mTc complex/85Sr: Blood” value (0.5 mg/kg) was 0.280 and the “Ratio of 99mTc complex/85Sr: Femur” value (0.5 mg/kg) was 0.628. For the same substance, the “Ratio of 99mTc complex/85Sr: Kidneys” value (0.5 mg/kg) was 2.47, the “Ratio of 99mTc complex/85Sr: Liver” value (0.5 mg/kg) was 0.459 and the “Ratio of 99mTc complex/85Sr: Marrow” value (0.5 mg/kg) was 0.500. For the same substance, the “Ratio of 99mTc complex/85Sr: Muscle” value (0.5 mg/kg) was 0.140, the “Ratio of 99mTc complex/85Sr: Pelvis” value (0.5 mg/kg) was 0.692 and the “Ratio of 99mTc complex/85Sr: Spine” value (0.5 mg/kg) was 0.614. For the same substance, the “Ratio of 99mTc complex/85Sr: Tibia” value (0.5 mg/kg) was 0.632, the “Tc/Sr (last line of distribution table)” value (0.5 mg/kg) was 0.645 and the “% Dose in Whole Organ: Blood” value (0.5 mg/kg AEDP) was 1.38 % Dose. For the same substance, the “% Dose in Whole Organ: Kidneys” value (0.5 mg/kg AEDP) was 1.11 % Dose, the “% Dose in Whole Organ: Liver” value (0.5 mg/kg AEDP) was 0.216 % Dose and the “% Dose in Whole Organ: Marrow” value (0.5 mg/kg AEDP) was 0.23 % Dose. The “% Dose in Whole Organ: Muscle” value (0.5 mg/kg AEDP) was 0.883 % Dose, the “% Dose in Whole Organ: W. Femur” value (0.5 mg/kg AEDP) was 1.74 % Dose and the “% Dose in Whole Organ: W. Tibia” value (0.5 mg/kg AEDP) was 1.55 % Dose. For the same substance, the “% Dose/1% Body weight: Blood” value (0.5 mg/kg AEDP) was 0.197 % Dose/1% Body weight, the “% Dose/1% Body weight: Bone Ave” value (0.5 mg/kg AEDP) was 6.96 % Dose/1% Body weight and the “% Dose/1% Body weight: Femur” value (0.5 mg/kg AEDP) was 6.59 % Dose/1% Body weight. For the same substance, the “% Dose/1% Body weight: Kidneys” value (0.5 mg/kg AEDP) was 2.11 % Dose/1% Body weight, the “% Dose/1% Body weight: Liver” value (0.5 mg/kg AEDP) was 0.079 % Dose/1% Body weight and the “% Dose/1% Body weight: Marrow” value (0.5 mg/kg AEDP) was 0.104 % Dose/1% Body weight. The “% Dose/1% Body weight: Muscle” value (0.5 mg/kg AEDP) was 0.021 % Dose/1% Body weight, the “% Dose/1% Body weight: Pelvis” value (0.5 mg/kg AEDP) was 7.93 % Dose/1% Body weight and the “% Dose/1% Body weight: Spine” value (0.5 mg/kg AEDP) was 6.05 % Dose/1% Body weight. For the same substance, the “% Dose/1% Body weight: Tibia” value (0.5 mg/kg AEDP) was 7.27 % Dose/1% Body weight and the “% Dose: Urine” value (0.5 mg/kg AEDP) was 48.85 % Dose.
